The values that follow come from patent US8026359B2, “Fungicidal heterocyclic amines” (E.I. du Pont de Nemours and Company, priority 2007, dated 2011).

Assay type in all cases: in vivo
The test system of one assay is Septoria nodorum. The assay is described as follows: Test C: wheat glume blotch, preventive spray on wheat seedlings. The method in brief:
(§1)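 Compounds dissolved in acetone (3% of final volume), then suspended in 50/50 acetone/purified water with 250 ppm Trem® 014 surfactant. Sprayed to run-off on seedlings as a 200 ppm (equivalent to 500 g/ha) or 40 ppm suspension, preventively.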

Another assay has as its system Septoria tritici. The assay is described as follows: Test D: wheat leaf blotch, preventive spray on wheat seedlings. The method in brief:
as §1

A further assay relates to Botrytis cinerea. Briefly: Test F: tomato Botrytis, preventive spray on tomato seedlings. The method in brief:
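Compounds dissolved in acetone (3% of final volume), suspended in 50/50 acetone/water with 250 ppm Trem® 014. Sprayed preventively to run-off on tomato seedlings at 200 ppm (500 g/ha) or 40 ppm.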

Assay [1] deals with Puccinia recondita f. sp. tritici. The assay is described as follows: Test B: wheat leaf rust, preventive spray on wheat seedlings. The method in brief: as §1
Assay [2] deals with Erysiphe graminis f. sp. tritici. The assay is described as follows: Test A: wheat powdery mildew, preventive spray on wheat seedlings. The method in brief:
as §1

The next assay has as its system Alternaria solani. The assay is described as follows: Test H: tomato early blight, preventive spray on seedlings. The text has this:
(§2) General protocol for preparing test suspensions for Tests A-R: The test compounds were first dissolved in acetone in an amount equal to 3% of the final volume and then suspended at the desired concentration (in ppm) in acetone and purified water (50/50 mix) containing 250 ppm of the surfactant Trem® 014 (polyhydric alcohol esters). The resulting test suspensions were then used in tests A-R. In Tests A-M, compounds were sprayed as a 200 ppm test suspension (equivalent to a rate of 500 g/ha) or as a 40 ppm test suspension to the point of runoff on the test plants. In Tests N-R, compounds were sprayed as a 100 g/ha test suspension (equivalent to a rate of 100 ppm) on the test plants at an application volume of 1000 L/ha. The test suspension was sprayed to the point of run-off on wheat seedlings.

Another assay has as its system Fusarium graminearum. The assay is described as follows: whole plant or invertebrate.
Assay [3] relates to Colletotrichum orbiculare. Briefly: Test I: cucumber Colletotrichum anthracnose, preventive spray on cucumber seedlings. The following applies: 100 = 100% disease control, 0 = no control relative to controls; for Test I disease control rating: 200 ppm. The method in brief: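 Compound was dissolved in acetone (3% of final volume), then suspended in 50/50 acetone/water with 250 ppm Trem 014 surfactant. Cucumber seedlings were sprayed to run-off as a preventive treatment at 200 ppm (equivalent to 500 g/ha) or 40 ppm.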

The next assay has as its system Phytophthora infestans. The settings on record: 200 ppm; 100 = 100% disease control, 0 = no control relative to controls.
The test system of a further assay is Pythium aphanidermatum. The assay is described as follows: Test M: bluegrass pythium blight, preventive spray on bluegrass seedlings. The following applies: 200 ppm; 100 = 100% disease control, 0 = no control relative to controls.
Excerpt: as §2, with “bluegrass” for “wheat”

Setting [4] is: Fusarium graminearum, in Triticum aestivum, 192 h, read-out: Test E disease control rating.
The mark [5] stands for this setting: 200 ppm, 100 = 100% disease control, 0 = no control relative to controls.
Where [6] appears, read: Parastagonospora nodorum, 216 h, 200 ppm, 100 = 100% disease control, 0 = no control relative to controls, read-out: Test C disease control rating.
Where [7] appears, read: Zymoseptoria tritici, 504 h, 200 ppm, 100 = 100% disease control, 0 = no control relative to controls, read-out: Test D disease control rating.
Setting [8] is: Botrytis cinerea, 120 h, 200 ppm, 100 = 100% disease control, 0 = no control relative to controls, read-out: Test F disease control rating.
Setting [9] is: Puccinia recondita, 192 h, 200 ppm, 100 = 100% disease control, 0 = no control relative to controls, read-out: Test B disease control rating.
The mark [10] stands for this setting: Alternaria solani, 168 h, 200 ppm, 100 = 100% disease control, 0 = no control relative to controls, read-out: Test H disease control rating.

Marks after values point to notes of the source that are not given here.

For the compound `COC[C@H](C)Nc1nccc(-c2ncnc(Nc3cc(F)cc([N+](=O)[O-])c3)n2)n1` [Compound 39, N-(3-fluoro-5-nitrophenyl)-4-[2-[[(1S)-2-methoxy-1-methylethyl]amino]-4-pyrimidinyl]-1,3,5-triazin-2-amine], the pest or weed control at 40 ppm in the assay with Septoria nodorum (Parastagonospora nodorum, 216 h, 40 ppm (marked *), read-out: Test C disease control rating) is 99%; in the assay on Septoria tritici (Zymoseptoria tritici, 504 h, 40 ppm (marked *), read-out: Test D disease control rating) it was 24%; with Botrytis cinerea (Botrytis cinerea, 120 h, 40 ppm (marked *), read-out: Test F disease control rating), 60%; in [1] (Puccinia recondita, 192 h, 40 ppm (marked *), read-out: Test B disease control rating) it was 98%; in assay [2] (Blumeria graminis, 192 h, 40 ppm (marked *), read-out: Test A disease control rating) it was 0%; in the assay on Alternaria solani (Alternaria solani, 168 h, 40 ppm (marked *), read-out: Test H disease control rating), 99%. In the assay with Fusarium graminearum (setting [4]), the pest or weed control at 40 ppm came out at 82%.
Turning to `CC(C)(C)Nc1nccc(-c2ncnc(Nc3cc(F)cc(F)c3)n2)n1` [Compound 33], the “Test C disease control rating” value with Septoria nodorum (setting [5]) came to 99%. The “Test D disease control rating” value in the assay with Septoria tritici (setting [5]) is 22%. Moreover, the “Test F disease control rating” value in the assay with Botrytis cinerea (setting [5]) is listed as 0%. Besides, the “Test B disease control rating” value in assay [1] (setting [5]) is recorded as 87%. Further, the “Test A disease control rating” value in assay [2] (setting [5]) is given as 0%. Besides, the “Test H disease control rating” value in the assay on Alternaria solani (setting [5]) is 94%. For the same compound, in the assay on Fusarium graminearum (40 ppm (marked *)), the “Test E disease control rating” value was 83* %.
With `COC[C@H](C)Nc1nccc(-c2ncnc(Nc3ccnc(Cl)c3)n2)n1` [Compound 27], the “Test C disease control rating” value in the assay with Septoria nodorum (setting [5]) is on record as 99%. In addition, the “Test D disease control rating” value in the assay with Septoria tritici (setting [5]) is 75%. Further, the “Test F disease control rating” value with Botrytis cinerea (setting [5]) is recorded as 94%. In addition, in [1] (setting [5]), the “Test B disease control rating” value came out at 100%. For the same compound, in assay [2] (setting [5]), the “Test A disease control rating” value was 0%. In addition, the “Test H disease control rating” value with Alternaria solani (40 ppm (marked *)) is 100* %. Besides, the “Test E disease control rating” value with Fusarium graminearum (setting [5]) worked out at 97%.
For the compound `COCC(C)(C)Nc1nccc(-c2ncnc(Nc3cc(F)cc(F)c3)n2)n1` [Compound 30], the “Test C disease control rating” value with Septoria nodorum (setting [5]) is on record as 100%. In addition, the “Test D disease control rating” value in the assay with Septoria tritici (setting [5]) turned out to be 88%. The “Test F disease control rating” value in the assay on Botrytis cinerea (setting [5]) came out at 96%. The “Test B disease control rating” value in assay [1] (setting [5]) stood at 99%. The “Test A disease control rating” value in [2] (setting [5]) is 67%. The “Test H disease control rating” value in the assay with Alternaria solani (40 ppm (marked *)) is listed as 87* %. In addition, the “Test E disease control rating” value with Fusarium graminearum (setting [5]) is given as 91%.
`Fc1cc(F)cc(Nc2ncnc(-c3ccnc(NC4CCOCC4)n3)n2)c1` [Compound 34]: the “Test C disease control rating” value in the assay with Septoria nodorum (setting [5]) is 100%. Further, in the assay on Septoria tritici (setting [5]), the “Test D disease control rating” value was 59%. The “Test F disease control rating” value with Botrytis cinerea (setting [5]) was determined as 0%. The “Test B disease control rating” value in assay [1] (setting [5]) came out at 98%. In assay [2] (setting [5]), the “Test A disease control rating” value is recorded as 0%. The “Test H disease control rating” value with Alternaria solani (setting [5]) is recorded as 94%. Also, the “Test E disease control rating” value in the assay on Fusarium graminearum (setting [5]) is recorded as 68%.
Regarding `COC[C@H](C)Nc1nccc(-c2ncnc(Nc3cc(F)cc(C#N)c3)n2)n1` [Compound 36], the “Test C disease control rating” value with Septoria nodorum (40 ppm (marked *)) was 100* %. Besides, the “Test D disease control rating” value with Septoria tritici (40 ppm (marked *)) is 29* %. In the assay with Botrytis cinerea (40 ppm (marked *)), the “Test F disease control rating” value is given as 99* %. Further, in [1] (40 ppm (marked *)), the “Test B disease control rating” value is 99* %. For the same compound, the “Test A disease control rating” value in assay [2] (40 ppm (marked *)) is reported as 0* %. For the same compound, the “Test H disease control rating” value in the assay on Alternaria solani (40 ppm (marked *)) is 99* %. In the assay on Fusarium graminearum (40 ppm (marked *)), the “Test E disease control rating” value is reported as 91* %.
With `COC[C@H](C)Nc1nccc(-c2ncnc(Nc3ccc(C#N)nc3)n2)n1` [Compound 37, 5-[[4-[2-[[(1S)-2-methoxy-1-methylethyl]amino]-4-pyrimidinyl]-1,3,5-triazinyl]amino]-2-pyridinecarbonitrile], the pest or weed control at 200 ppm was determined as 98% in the assay on Septoria nodorum (setting [6]); 0% in the assay with Septoria tritici (setting [7]); 0% with Botrytis cinerea (setting [8]); 99% in assay [1] (setting [9]); 79% in assay [2] (Blumeria graminis, 192 h, 200 ppm, 100 = 100% disease control, 0 = no control relative to controls, read-out: Test A disease control rating); 72% in the assay on Alternaria solani (setting [10]). Besides, in the assay with Fusarium graminearum (setting [4]), the pest or weed control at 200 ppm came to 41%.
Turning to `COC(C)(C)Nc1nccc(-c2ncnc(Nc3cc(F)cc(F)c3)n2)n1` [Compound 32], in the assay on Septoria nodorum (setting [5]), the “Test C disease control rating” value is 100%. The “Test D disease control rating” value with Septoria tritici (setting [5]) came to 39%. Further, the “Test F disease control rating” value in the assay on Botrytis cinerea (setting [5]) is recorded as 94%. Also, in assay [1] (setting [5]), the “Test B disease control rating” value came out at 99%. Besides, the “Test A disease control rating” value in [2] (setting [5]) was 0%. The “Test H disease control rating” value in the assay on Alternaria solani (setting [5]) is recorded as 99%. Further, the “Test E disease control rating” value in the assay on Fusarium graminearum (setting [5]) was 38%.
As to `Cc1cc(Cl)cc(Cl)c1Nc1cc(-c2ccnc(NC3CCOCC3)n2)ccn1` [Compound 100], in assay [3], the “Test I disease control rating” value is listed as 0%. The “Test C disease control rating” value in the assay with Septoria nodorum (setting [5]) worked out at 98%. For the same compound, the “Test D disease control rating” value in the assay with Septoria tritici (setting [5]) was 77%. For the same compound, the “Test F disease control rating” value with Botrytis cinerea (setting [5]) worked out at 0%. Further, the “Test B disease control rating” value in assay [1] (setting [5]) is 98%. Further, the “Test A disease control rating” value in assay [2] (setting [5]) amounted to 0%. Besides, the “Test H disease control rating” value with Alternaria solani (setting [5]) is on record as 99%. In the assay with Fusarium graminearum (setting [5]), the “Test E disease control rating” value stood at 96%.
For the compound `Fc1ccc(F)c(Nc2cc(-c3ccnc(NC4CCOCC4)n3)ccn2)c1F` [Compound 73], in [3], the “Test I disease control rating” value is 85%. Moreover, in the assay on Septoria nodorum (setting [5]), the “Test C disease control rating” value came out at 99%. The “Test D disease control rating” value with Septoria tritici (setting [5]) is reported as 40%. Further, in the assay with Phytophthora infestans, the “Test K disease control rating” value worked out at 0%. For the same compound, the “Test M disease control rating” value in the assay with Pythium aphanidermatum amounted to 0%. Moreover, the “Test F disease control rating” value in the assay with Botrytis cinerea (setting [5]) stood at 57%. Besides, the “Test B disease control rating” value in assay [1] (setting [5]) turned out to be 96%. Further, the “Test A disease control rating” value in assay [2] (setting [5]) was 43%. In addition, the “Test E disease control rating” value with Fusarium graminearum (setting [5]) was determined as 0%.
With `COC(C)CNc1nccc(-c2ccnc(Nc3cccc(F)c3)c2)n1` (stereo not shown) [Compound 96, 4-[2-[(3-fluorophenyl)amino]-4-pyridinyl]-N-(2-methoxypropyl)-2-pyrimidinamine], the pest or weed control at 200 ppm was found to be 0% in assay [3] (Colletotrichum orbiculare, 144 h, read-out: Test I disease control rating); 99% with Septoria nodorum (setting [6]); 28% in the assay with Septoria tritici (setting [7]); 86% in the assay with Botrytis cinerea (setting [8]); 85% in assay [1] (setting [9]); 0% in the assay on Alternaria solani (setting [10]). In addition, in the assay on Fusarium graminearum (setting [4]), the pest or weed control at 200 ppm was 0%.
With `COC[C@H](C)Nc1nccc(-c2ncnc(Nc3ccnc(F)c3)n2)n1` [Compound 31], the “Test C disease control rating” value in the assay with Septoria nodorum (setting [5]) turned out to be 100%. Further, in the assay on Septoria tritici (setting [5]), the “Test D disease control rating” value was determined as 88%. Besides, the “Test F disease control rating” value with Botrytis cinerea (setting [5]) turned out to be 99%. The “Test B disease control rating” value in assay [1] (setting [5]) was 100%. For the same compound, the “Test A disease control rating” value in [2] (setting [5]) is listed as 0%. Besides, the “Test H disease control rating” value in the assay on Alternaria solani (setting [5]) was found to be 92%. Also, the “Test E disease control rating” value in the assay on Fusarium graminearum (setting [5]) amounted to 89%.
With `COC[C@H](C)Nc1nccc(-c2ncnc(Nc3ccccc3F)n2)n1` [Compound 17], the “Test I disease control rating” value in [3] amounted to 98%. Besides, the “Test C disease control rating” value in the assay on Septoria nodorum (setting [5]) stood at 99%. The “Test D disease control rating” value in the assay with Septoria tritici (setting [5]) was determined as 66%. In addition, in the assay on Botrytis cinerea (setting [5]), the “Test F disease control rating” value is 97%. Moreover, the “Test B disease control rating” value in assay [1] (setting [5]) was found to be 86%. Moreover, the “Test H disease control rating” value with Alternaria solani (setting [5]) was found to be 90%. In addition, the “Test E disease control rating” value in the assay with Fusarium graminearum (setting [5]) worked out at 0%.
